From patent US4252795A, “N-substituted dimeric cyclopeptide derivatives and preparation thereof” (Ayerst McKenna and Harrison Inc., priority 1978, dated 1981) come the findings set out here.

The subject of one assay is Serratia marcescens. Nature of the assay: serial broth dilution, growth inhibition. In kind it is cell-based. The following applies: nutrient broth, incubated at 37° C. for 2 days, examined for presence of growth. As for the experimental part:
(§1) Grove and W. A. Randall in "Assay Methods of Antibiotics", Med. Encycl. Inc., [New York] 955. […] 289.
(§2) For example, by employing a test like the serial broth dilution, see Grove and Randall, cited above, in which dilutions of the compounds of this invention in nutrient broth are inoculated with the microorganisms or fungi, described above, incubated at 37° C. for 2 days, respectively, and examined for the presence of growth, it may be shown that the preferred compounds N'N'-dicyclohexyl-α,α'-diisopropyl-2,5,8,11,14,17-hexaoxo-1,4,7,10,13,16-hexaazacyclooctadecane-1,10-diacetamide, isomer L, (Example 1), N'N'-dicyclohexyl-α,α'-diisopropyl-2,5,8,11,14,17-hexaoxo-1,4,7,10,13,16-hexaazacyclooctadecane-1,10-diacetamide, isomer M, (Example 1), and α,α'-diphenyl-N'N'-dicyclohexyl-2,5,8,11,14,17-hexaoxo-1,4,7,10,13,16-hexaazacyclooctadecane-1,10-diacetamide, isomer L, (Example 1) are able to inhibit growth totally in this system of Klebsiella pneumoniae and Serratia marcescens at a concentration of 100 mcg/ml.
(In general: Dilution methods test growth across graded concentrations, often in twofold steps.)

In the next assay the test system is Klebsiella pneumoniae. The assay can be described thus: serial broth dilution, growth inhibition. In kind it is cell-based. To be noted: nutrient broth, incubated at 37° C. for 2 days, examined for presence of growth. The method, then:
as §1, §2

Turning to `O=C1CNC(=O)CN(C(C(=O)NC2CCCCC2)c2ccccc2)C(=O)CNC(=O)CNC(=O)CN(C(C(=O)NC2CCCCC2)c2ccccc2)C(=O)CN1` (stereo not drawn) [α,α'-diphenyl-N,N'-dicyclohexyl-2,5,8,11,14,17-hexaoxo-1,4,7,10,13,16-hexaazacyclooctadecane-1,10-diacetamide], the “concentration able to inhibit growth totally” value with Serratia marcescens and with Klebsiella pneumoniae was 100 µg/mL throughout.
For the compound `CC(C)C(C(=O)NC1CCCCC1)N1CC(=O)NCC(=O)NCC(=O)N(C(C(=O)NC2CCCCC2)C(C)C)CC(=O)NCC(=O)NCC1=O` (stereo not drawn) [N,N'-Dicyclohexyl-α,α'-diisopropyl-2,5,8,11,14,17-hexaoxo-1,4,7,10,13,16-hexaazacyclooctadecane-1,10-diacetamide], the “concentration able to inhibit growth totally” value in the assay on Serratia marcescens and in the assay with Klebsiella pneumoniae was 100 µg/mL in each case.
